Measurements: ChEMBL document CHEMBL1201862, “PubChem BioAssay data set” (2004)
Structures can show the parent of a compound that is named as a salt. Calls of active or inactive are those of the source.

Key:
[1] = molecular target: T1, Tyrosine-protein phosphatase non-receptor type 7 (Homo sapiens, UniProt P35236); type: functional
T1 sequence (P35236 whole entry): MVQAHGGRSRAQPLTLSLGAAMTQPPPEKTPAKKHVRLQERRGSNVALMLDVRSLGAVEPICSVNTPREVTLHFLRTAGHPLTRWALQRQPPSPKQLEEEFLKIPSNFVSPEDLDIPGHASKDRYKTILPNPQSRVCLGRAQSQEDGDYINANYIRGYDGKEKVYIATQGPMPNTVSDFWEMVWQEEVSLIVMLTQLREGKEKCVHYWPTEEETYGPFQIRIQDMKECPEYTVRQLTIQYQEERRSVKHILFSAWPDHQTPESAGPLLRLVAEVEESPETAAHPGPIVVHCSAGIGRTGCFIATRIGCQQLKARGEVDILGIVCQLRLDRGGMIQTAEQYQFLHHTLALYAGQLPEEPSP

[2] = molecular target: T2, Tyrosine-protein phosphatase non-receptor type 22 (Homo sapiens, UniProt Q9Y2R2); type: functional
T2 sequence (Q9Y2R2 whole entry): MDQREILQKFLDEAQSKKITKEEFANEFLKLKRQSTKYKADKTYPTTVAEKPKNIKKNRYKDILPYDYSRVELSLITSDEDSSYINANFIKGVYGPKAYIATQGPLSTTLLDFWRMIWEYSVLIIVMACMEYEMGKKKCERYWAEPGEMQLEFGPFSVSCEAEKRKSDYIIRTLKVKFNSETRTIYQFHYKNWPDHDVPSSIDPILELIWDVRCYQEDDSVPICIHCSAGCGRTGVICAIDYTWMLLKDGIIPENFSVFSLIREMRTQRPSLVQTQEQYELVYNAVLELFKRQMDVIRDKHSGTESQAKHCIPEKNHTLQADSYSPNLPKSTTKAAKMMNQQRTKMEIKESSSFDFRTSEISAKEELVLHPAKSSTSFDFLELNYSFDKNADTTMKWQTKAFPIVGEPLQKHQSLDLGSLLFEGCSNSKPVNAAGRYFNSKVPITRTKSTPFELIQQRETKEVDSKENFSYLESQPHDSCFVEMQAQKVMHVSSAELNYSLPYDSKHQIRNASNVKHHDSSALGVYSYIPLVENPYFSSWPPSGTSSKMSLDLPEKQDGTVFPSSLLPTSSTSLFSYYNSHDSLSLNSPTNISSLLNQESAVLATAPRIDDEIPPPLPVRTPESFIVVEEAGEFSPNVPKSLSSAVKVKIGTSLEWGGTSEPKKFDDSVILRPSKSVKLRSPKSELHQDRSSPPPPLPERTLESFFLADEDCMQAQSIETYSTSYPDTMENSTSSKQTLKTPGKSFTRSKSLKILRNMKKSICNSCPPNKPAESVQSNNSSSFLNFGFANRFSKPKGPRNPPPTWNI

[3] = molecular target: T2, Tyrosine-protein phosphatase non-receptor type 22; type: functional; remark: listed apart in the source
[4] = decrease of insulin promoter-GFP reporter – imaging, high-content screening, mouse beta cells (AID 1628); type: functional; settings: MIN6
[5] = MIN6 cell viability loss – mouse insulinoma, cytotoxicity control, dose response (AID 2122); type: functional;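 note: confirmatory high-throughput counterscreen run to flag cytotoxic compounds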
[6] = test system: Jurkat; assay: SAR Analysis of small molecule inhibitors of […] specific antigen receptor-induced NF-kB activation in a Jurkat cell line using a luminescence assay - Set 3. [Related pubchem assays (depositor defined):AID435022, AID435025, AID465]; type: functional, cell-based; settings: Homo sapiens
[7] = test system: HEK293; assay: SAR Analysis of small molecule inhibitors of B-cell specific antigen receptor-induced NF-kB activation in a HEK-293T cell line using a luminescence assay - Set 2. [Related pubchem assays (depositor defined):AID435022, AID435025, AID489021]; type: functional, cell-based; settings: Homo sapiens
[8] = test system: HEK293; assay: HEK293T cell viability loss, resazurin readout – resazurin fluorescence, cytotoxicity control for NF-kB activator project, SAR follow-up (AID 493251); type: functional, cell-based; settings: Homo sapiens
[9] = molecular target: Voltage-gated inwardly rectifying potassium channel KCNH2 (Homo sapiens, UniProt Q12809); settings: Potency;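 note: confirmatory quantitative high-throughput screen measuring inhibition of hERG channel activity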
Voltage-gated inwardly rectifying potassium channel KCNH2, sequence (Q12809 whole entry): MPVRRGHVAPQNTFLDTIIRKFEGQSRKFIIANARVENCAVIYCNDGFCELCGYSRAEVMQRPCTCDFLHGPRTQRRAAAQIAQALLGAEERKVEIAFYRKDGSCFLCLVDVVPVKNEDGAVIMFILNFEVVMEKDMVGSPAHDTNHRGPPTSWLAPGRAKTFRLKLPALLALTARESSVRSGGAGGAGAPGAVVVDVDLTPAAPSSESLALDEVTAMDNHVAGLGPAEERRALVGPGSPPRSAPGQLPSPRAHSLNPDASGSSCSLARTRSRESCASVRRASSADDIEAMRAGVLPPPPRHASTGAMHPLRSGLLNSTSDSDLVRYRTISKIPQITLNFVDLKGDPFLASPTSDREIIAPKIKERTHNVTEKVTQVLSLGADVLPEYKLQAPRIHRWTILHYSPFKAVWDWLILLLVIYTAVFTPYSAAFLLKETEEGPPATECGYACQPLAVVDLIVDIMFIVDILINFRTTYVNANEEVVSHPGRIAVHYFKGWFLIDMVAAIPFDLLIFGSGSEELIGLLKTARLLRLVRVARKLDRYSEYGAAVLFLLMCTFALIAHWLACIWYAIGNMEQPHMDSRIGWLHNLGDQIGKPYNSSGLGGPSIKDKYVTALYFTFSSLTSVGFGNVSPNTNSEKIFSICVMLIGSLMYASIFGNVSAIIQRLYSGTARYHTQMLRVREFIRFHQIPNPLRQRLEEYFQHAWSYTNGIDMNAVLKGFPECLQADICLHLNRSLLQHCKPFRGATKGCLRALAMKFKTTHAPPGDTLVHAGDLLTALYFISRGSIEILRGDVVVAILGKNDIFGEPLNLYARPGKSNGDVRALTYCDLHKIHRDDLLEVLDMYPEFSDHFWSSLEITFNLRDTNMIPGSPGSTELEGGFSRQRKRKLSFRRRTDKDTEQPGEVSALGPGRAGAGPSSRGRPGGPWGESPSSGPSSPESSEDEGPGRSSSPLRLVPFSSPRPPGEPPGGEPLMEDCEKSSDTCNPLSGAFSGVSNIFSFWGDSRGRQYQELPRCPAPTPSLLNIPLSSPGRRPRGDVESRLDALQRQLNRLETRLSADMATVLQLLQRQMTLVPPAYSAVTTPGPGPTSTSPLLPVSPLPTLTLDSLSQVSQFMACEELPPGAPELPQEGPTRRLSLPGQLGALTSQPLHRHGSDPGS

[10] = NIH-3T3 fibroblast cytotoxicity, dose response, cytotoxicity control, cell-based, fluorescence, Alamar Blue, secondary assay (AID 2327); type: functional;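 note: NIH-3T3 mouse fibroblasts cultured with fluconazole at 8 µg/mL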
[11] = luciferase reporter signal suppression in cells – H4 neuroglioma cells, luminescence, dose response (AID 1990); type: functional, cell-based
[12] = test system: BJ; assay: BJ-TERT fibroblast viability loss – cell-based, RAS-independent, luminescence, dose response (AID 1933); type: functional; settings: Homo sapiens
[13] = cells; type: functional, cell-based
[14] = Luminescence Cell-Based Dose Response HTS to Identify Inhibitors of 5'UTR Stem-Loop Driven Prion Protein mRNA Translation in H4 Neuroglioblastoma Cells. [Related pubchem assays: 1827 (Project Summary), 1813 (Primary HTS)]; type: functional
[15] = alpha-synuclein stem-loop luciferase translation blockers – H4 neuroglioma cells, luminescence, confirmation (AID 1988); type: functional, cell-based
[16] = test system: BJ; assay: cells; type: functional, cell-based; settings: Homo sapiens
[17] = cells; type: functional, cell-based; remark: listed apart in the source
[18] = test system: BJ; assay: BJ-TERT-LT-ST fibroblast viability loss – cell-based, RAS-independent, luminescence, dose response (AID 1935); type: functional; settings: Homo sapiens;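 note: BJ fibroblasts immortalized with TERT plus LT and ST oncogenes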
[19] = DRD fibroblast viability loss – cell-based, non-viral oncogenic, luminescence, dose response (AID 1934); type: functional; settings: Homo sapiens
[20] = test system: HEK293; assay: EBV LMP1 TES2 canonical NF-kB signalling blockers – cell-based, HEK293, luciferase, cherry-pick, dose response (AID 588343); type: functional; settings: Homo sapiens
[21] = test system: BJ; assay: growth inhibition of engineered Ras-driven BJ cells – cell-based, alamar blue fluorescence, cherrypicked samples, dose response (AID 2631); type: functional; settings: Homo sapiens;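 note: confirmatory dose-response assay in RAS-dependent BJ fibroblasts engineered with TERT, LT and ST, with cytotoxicity read by fluorescence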
[22] = test system: INS1; assay: INS-1E survival protection against cytokine death – cell-based, luminescence, retest, dose response (AID 449756); type: functional; settings: Rattus norvegicus;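 note: cell death triggered by IL-1 beta plus TNF-alpha plus IFN-gamma mixture; protective hits raise ATP signal compared with cytokine alone wells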
[23] = molecular target: T3, Long-chain-fatty-acid--AMP ligase FadD28 (Mycobacterium tuberculosis, UniProt P9WQ59); assay: Fluorescence polarization aasay to screen for inhibitors that compete for the binding of FadD28 to a bisubstrate Measured in Biochemical System Using Plate Reader - 2147-01_Inhibitor_Dose_CherryPick_Activity.; type: functional, Mycobacterium tuberculosis H37Rv
T3 sequence (P9WQ59 whole entry): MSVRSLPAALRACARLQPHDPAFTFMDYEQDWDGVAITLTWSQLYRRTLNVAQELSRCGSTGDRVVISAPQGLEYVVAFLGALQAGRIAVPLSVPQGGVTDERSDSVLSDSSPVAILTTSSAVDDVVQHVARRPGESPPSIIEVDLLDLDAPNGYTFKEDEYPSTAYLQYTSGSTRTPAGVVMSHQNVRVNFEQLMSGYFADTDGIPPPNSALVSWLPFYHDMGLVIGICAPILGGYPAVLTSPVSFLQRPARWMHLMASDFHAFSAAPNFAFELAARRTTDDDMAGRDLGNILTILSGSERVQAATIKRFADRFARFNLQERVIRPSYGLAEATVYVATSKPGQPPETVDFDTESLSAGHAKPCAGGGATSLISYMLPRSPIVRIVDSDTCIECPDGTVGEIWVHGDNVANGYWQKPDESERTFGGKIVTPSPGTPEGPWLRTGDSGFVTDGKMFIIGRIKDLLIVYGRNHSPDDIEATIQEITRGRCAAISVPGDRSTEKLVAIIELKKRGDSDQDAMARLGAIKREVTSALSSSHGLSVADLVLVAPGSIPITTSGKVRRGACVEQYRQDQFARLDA

[24] = molecular target: T4, Heat shock factor protein 1 (Mus musculus, UniProt P38532); assay: enhancement of HSF1-driven luciferase signal – cell-based, NIH3T3, luminescence, dose retest, confirmation (AID 435004); type: functional;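 note: stress induced by proteasome inhibitor MG132 added 30 min after compound; luciferase reporter driven by HSF1 response element in NIH3T3 cells; actives raise luminescence as potentiators of the MG132 stress response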
T4 sequence (P38532 whole entry): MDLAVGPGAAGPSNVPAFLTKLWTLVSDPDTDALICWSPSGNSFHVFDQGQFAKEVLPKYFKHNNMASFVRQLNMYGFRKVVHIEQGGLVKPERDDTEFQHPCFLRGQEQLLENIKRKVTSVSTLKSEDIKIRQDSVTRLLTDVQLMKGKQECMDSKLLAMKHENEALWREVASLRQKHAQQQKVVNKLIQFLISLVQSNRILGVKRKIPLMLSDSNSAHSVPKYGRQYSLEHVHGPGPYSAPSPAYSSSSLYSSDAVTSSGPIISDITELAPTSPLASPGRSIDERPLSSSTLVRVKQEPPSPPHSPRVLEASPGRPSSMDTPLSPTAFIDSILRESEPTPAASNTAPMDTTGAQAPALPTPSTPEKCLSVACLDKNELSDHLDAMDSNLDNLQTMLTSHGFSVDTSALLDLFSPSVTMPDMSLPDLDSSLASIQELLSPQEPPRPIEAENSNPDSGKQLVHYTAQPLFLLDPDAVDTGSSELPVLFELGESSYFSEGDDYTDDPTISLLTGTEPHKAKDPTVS

O=C(c1cc2cc(F)ccc2[nH]1)N1CCN(C(=O)c2ccco2)CC1
IC50 [1]: > 79.4 µM (inactive) | IC50 [2]: > 79.4 µM (inactive) | IC50 [3]: > 79.4 µM (inactive)

Cn1c(N2CCOCC2)c(/C=N/OC(=O)c2cccnc2Cl)c2ccccc21
IC50 [4]: 3.37 µM (active) | IC50 [5]: 1.4 µM (active)

CCOc1ccc(-c2nc(CSCC(=O)NCc3cccs3)c(C)o2)cc1
IC50 [6]: > 80 µM (inactive) | IC50 [7]: 24.3 µM (inactive) | IC50 [8]: 34.8 µM (inactive)

CCCNC(=O)CCc1nc(-c2ccc(C(C)(C)C)cc2)no1
IC50 [6]: > 80 µM (inactive) | IC50 [7]: 9.19 µM (active) | IC50 [8]: > 80 µM (inactive)

CC(C)COC(=O)c1ccccc1C(=O)OCC(C)C
AC50 [9]: 35.5 µM (inconclusive)

CCN(CC)c1ccc(/C=N/NC(=O)c2ccc3[nH]cnc3c2)c(O)c1
EC50 [10]: 6.84 µM (active) | EC50 [11]: 3.35 µM (active) | EC50 [12]: 4.19 µM (active) | EC50 [13]: 8.39 µM (active) | EC50 [14]: 4.29 µM (active) | EC50 [15]: 7.51 µM (active) | EC50 [16]: 7.44 µM (inconclusive) | EC50 [17]: > 350 µM (not active) | EC50 [18]: 9.27 µM (active) | EC50 [19]: 4.54 µM (active) | AC50 [20]: 7.07 µM (active) | EC50 [21]: 0.944 µM (active) | AC50 [22]: 0.827 µM (active) | AC50 [23]: 13.1 µM (active)

COc1cccc(OC)c1OCCNCC1COc2ccccc2O1 (stereo unspecified) [2- (2,6-DIMETHOXYPHENOXYETHYL)AMINOMETHYL-1,4-BENZODIOXANE HYDROCHLORIDE (WB 4101)]
EC50 [24]: > 260 µM (inactive) | AC50 [9]: 11.2 µM (inconclusive)

CC(Oc1ccc(Cl)cc1Cl)c1nc(-c2ccc(NC(=O)c3cccnc3)cc2)no1 (stereo unspecified)
IC50 [4]: 0.88 µM (active) | EC50 [12]: > 150 µM (not active) | IC50 [5]: 0.928 µM (active) | EC50 [16]: 3.32 µM (active) | EC50 [18]: > 150 µM (not active) | EC50 [19]: 25.4 µM (active) | EC50 [21]: > 66.7 µM (inactive) | AC50 [22]: 0.61 µM (active)
